Laboratory results reported in patent US20090281142A1, “THIAZOLE DERIVATIVE” (ASTELLAS PHARMA INC., priority 2005, published 2009).

What was measured:
[1] = target: T1, recombinant human liver GK (GST-hGK2) (Homo sapiens, UniProt P35557); experiment: Measurement of GK activation; type: biochemical; settings: 10 min; 10 μM test agent, 5 mM glucose, increase of absorbance (340 nm) in first 10 minutes relative to DMSO control
T1 construct: cloning of ORF (open reading frame) was carried out by the following procedure based on AK122876.1; made in house; host or cells: E. coli
T1 sequence (P35557 1-466 isoform P35557-2): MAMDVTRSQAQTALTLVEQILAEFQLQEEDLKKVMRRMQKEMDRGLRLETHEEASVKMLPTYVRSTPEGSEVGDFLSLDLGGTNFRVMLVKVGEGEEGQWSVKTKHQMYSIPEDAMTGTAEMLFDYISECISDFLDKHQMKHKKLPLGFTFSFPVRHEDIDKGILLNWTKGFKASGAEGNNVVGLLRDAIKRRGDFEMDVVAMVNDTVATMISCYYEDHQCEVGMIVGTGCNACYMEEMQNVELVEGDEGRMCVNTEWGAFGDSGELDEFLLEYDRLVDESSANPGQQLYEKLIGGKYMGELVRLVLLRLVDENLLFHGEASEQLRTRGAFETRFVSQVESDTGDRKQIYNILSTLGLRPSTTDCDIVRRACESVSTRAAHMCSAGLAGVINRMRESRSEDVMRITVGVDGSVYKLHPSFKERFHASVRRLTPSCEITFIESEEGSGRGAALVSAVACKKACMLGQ
Procedure: Measurement of the GK activation by test agents was carried out in accordance with the method described in Science 301: 370-373, 2003, and by partially modifying this. The GK activity was measured as a change in absorbance based on the amount of NADPH which is converted from NADP (nicotinamide adenine dinucleotide phosphate) when glucose 6-phosphate produced by GK using glucose as the substrate is […] glucose-6-phosphate dehydrogenase.
Regarding the recombinant human liver GK (GST-hGK2) to be used in this assay, it was used by expressing as GST (glutathione S transferase)-fusion protein in E. coli and purifying by a Glutathione Sepharose column.
Regarding the sequence of glucokinase isoform 2, cloning of ORF (open reading frame) was carried out by the following procedure based on AK122876.1 (accession number). Using pME18S-FL3-Glucokinase isoform 2 as the template, PCR (polymerase chain reaction) was carried out using 5′-[…]-3′(SEQ ID NO:1) as the 5′ primer and 5′-[…]-3′ (SEQ ID NO:2) as the 3′ primer, and the PCR product was TA-cloned into pGEM-T easy vector. The sequence of this clone was confirmed by carrying out its sequencing. Thereafter, a fragment digested with EcoRI and XhoI was ligated to a vector pGEX-5X-1 digested in the same manner to prepare pGEX-human Glucokinase 2.
Regarding the enzyme reaction, the measurement was carried out at 27° C. using a 96 well flat bottom plate. As the enzyme mixed liquid, 25 mM HEPES pH 7.4; 25 mM KCl; 2 mM MgCl2; 1 mM ATP; 0.1% BSA; 1 mM DTT; 0.8 mM NADP; 2.5 U/ml glucose-6-phosphate dehydrogenase; GST-hGK2 (all in final concentration, however, the amount of GST-hGK2 was adjusted in such a manner that increase of absorbance of the DMSO control in 10 minutes (ΔOD) becomes about 0.12) was prepared. The enzyme mixed liquid was dispensed in 89 μl portions into the aforementioned plate, and a test agent dissolved in DMSO or the DMSO control was added thereto in 1 μl portions. Subsequently, glucose (5 mM in final concentration) was added as the substrate solution in 10 μl portions and the reaction was started at 27° C.
After commencement of the reaction, the absorbance was measured at a wavelength of 340 nm for 15 minutes at intervals of about 30 seconds, and the GK activation of each compound was calculated from the increase of absorbance during the first 10 minutes (ΔOD). Index of the GK activation of each test agent was calculated from the following formula as the GK activation (%).
GK activation (%)=[(ΔODTest)−(ΔODCont)]/(ΔODCont)×100
ΔODTest: ΔOD at 10 μM test agent
ΔODCont: ΔOD of DMSO control

[2] = system: C57BL6 mice; experiment: Hypoglycemic action in C57BL6 mice; type: in vivo; settings: 10 mg/kg oral, 1 hour after administration, freely ingesting C57BL6 mice
Procedure: Body weights of freely ingesting C57BL6 mice (N=5) were measured. Each test compound was dissolved in Cremophor (registered trademark) solvent (Cremophor:DMSO:Water 5:5:90, v/v/v) to a concentration of 1 mg/ml. To each mouse was orally administered 10 ml/kg of the agent liquid (corresponds to the test compound of 10 mg/kg) or 10 ml/kg of the solvent control. Just before the administration of the test compound, about 60 μl of blood was collected from the venous plexus of the fundus of the eye using a capillary. Blood was collected in the same manner 1 or 4 hours after the administration of the test compound. Blood plasma was separated from the thus collected blood to measure the blood glucose level. The blood glucose level after 1 or 4 hours of the administration of the test compound was compared with the blood glucose level of the solvent control group at the same period of time.

[3] = system: ICR mice; experiment: Action upon high blood glucose level after oral glucose loading in ICR mice; type: in vivo; settings: 3 mg/kg oral, fasted ICR mice, AUC of blood glucose from administration until 2 hours after oral glucose loading (2 g/kg) vs solvent control
Procedure: After overnight fasting, body weights of ICR mice (N=5) were measured. Each test compound was dissolved in Cremophor solvent (Cremophor:DMSO:Water 5:5:90, v/v/v) to a concentration of 0.3 mg/ml. To each mouse was orally administered 10 ml/kg of the agent liquid (corresponds to the test compound of 3 mg/kg) or 10 ml/kg of the solvent control. Just before the administration of the test compound, about 60 μl of blood was collected from the venous plexus of the fundus of the eye using a capillary. After 30 minutes of the administration of the test compound, 200 mg/ml of glucose aqueous solution was orally administered at a dose of 10 ml/kg (corresponds to 2 g/kg). Just before the administration of glucose, about 60 μl of blood was collected from the venous plexus of the fundus of the eye using a capillary. Blood was collected in the same manner after 0.5, 1 and 2 hours of the glucose administration. Blood plasma was separated from the thus collected blood to measure the blood glucose level. AUC of the blood glucose level after the administration of the test compound until 2 hours after the glucose loading was compared with AUC of the solvent control group within the same period of time.

[4] = system: db/db (C57BL/KsJ-db/db) mice; experiment: Action upon high blood glucose level after oral glucose loading in db/db mice; type: in vivo; settings: 10 mg/kg oral, fasted db/db mice, from administration until 2 hours after oral glucose loading (2 g/kg)
Procedure: After overnight fasting, body weights of db/db (C57BL/KsJ-db/db) mice (N=5) were measured. Each test compound was dissolved in Cremophor solvent (Cremophor:DMSO:Water 5:5:90, v/v/v) to a concentration of 1 mg/ml. To each db/db mouse was orally administered 10 ml/kg of the agent liquid (corresponds to the test compound of 10 mg/kg) or 10 ml/kg of the solvent control. Just before the administration of the test compound, about 60 μl of blood was collected from the venous plexus of the fundus of the eye using a capillary. After 30 minutes of the administration of the GK activator, 200 mg/ml of glucose aqueous solution was orally administered at a dose of 10 ml/kg (corresponds to 2 g/kg). Just before the administration of glucose, about 60 μl of blood was collected from the venous plexus of the fundus of the eye using a capillary. Blood was collected in the same manner after 0.5, 1 and 2 hours of the glucose administration. Blood plasma was separated from the thus collected blood to measure the blood glucose level. AUC of the blood glucose level after the administration of the test compound until 2 hours after the glucose loading was compared with AUC of the solvent control group within the same period of time.

CS(=O)(=O)c1ccc([C@@H](CC2CCCC2)C(=O)Nc2nc(C(O)CO)cs2)cc1 (stereo partly drawn) [Ex 5, (2R)-3-cyclopentyl-N-[4-(1,2-dihydroxyethyl)-1,3-thiazol-2-yl]-2-[4-(methylsulfonyl)phenyl]propanamide]
activation at 10 µM [1]: 263%

CS(=O)(=O)c1ccc(/C(=C\C2CCCC2)C(=O)Nc2nc(C(O)CO)cs2)cc1 (stereo not drawn) [Ex 6, (2E)-3-cyclopentyl-N-[4-(1,2-dihydroxyethyl)-1,3-thiazol-2-yl]-2-[4-(methylsulfonyl)phenyl]acrylamide]
activation at 10 µM [1]: 299% | blood glucose level lowered in comparison with the solvent control group [2]: 22%

O=C(Nc1nc(C(O)CO)cs1)C(CC1CCCC1)c1ccc(S(=O)(=O)C(F)(F)F)cc1 (stereo not drawn) [Ex 7, 3-cyclopentyl-N-[4-(1,2-dihydroxyethyl)-1,3-thiazol-2-yl]-2-{4-[(trifluoromethyl)sulfonyl]phenyl}propanamide]
activation at 10 µM [1]: 214%

CC1(C)OCC(c2csc(NC(=O)/C(=C/C3CCCC3)c3ccc(S(C)(=O)=O)c(Cl)c3)n2)O1 (stereo not drawn) [Ex 10, (2E)-2-[3-chloro-4-(methylsulfonyl)phenyl]-3-cyclopentyl-N-[4-(2,2-dimethyl-1,3-dioxolan-4-yl)-1,3-thiazol-2-yl]acrylamide]
activation at 10 µM [1]: 294%

O=C(Nc1nc([C@H](O)CO)cs1)/C(=C/C1CCCC1)c1ccc(S(=O)(=O)C2CC2)cc1 [Ex 13, (2E)-3-cyclopentyl-2-[4-(cyclopropylsulfonyl)phenyl]-N-{4-[(1S)-1,2-dihydroxyethyl]-1,3-thiazol-2-yl}acrylamide]
Blood glucose lowering ratio (%) [3]: 19% | activation at 10 µM [1]: 293%

CC1(C)OCC(c2csc(NC(=O)/C(=C/C3CCCC3)c3ccc(S(C)(=O)=O)cc3)n2)O1 (stereo not drawn) [Ex 38, (2E)-3-cyclopentyl-N-[4-(2,2-dimethyl-1,3-dioxolan-4-yl)-1,3-thiazol-2-yl]-2-[4-(methylsulfonyl)phenyl]acrylamide]
activation at 10 µM [1]: 239%

CC(=O)OCC(O)c1csc(NC(=O)/C(=C/C2CCCC2)c2ccc(S(C)(=O)=O)cc2)n1 (stereo not drawn) [Ex 44]
activation at 10 µM [1]: 283%

O=C(Nc1nc(C(O)CO)cs1)/C(=C/C1CCCC1)c1ccc(S(=O)(=O)C2CC2)cc1 (stereo not drawn) [Ex 45, (2E)-3-cyclopentyl-2-[4-(cyclopropylsulfonyl)phenyl]-N-[4-(1,2-dihydroxyethyl)-1,3-thiazol-2-yl]acrylamide]
Blood glucose lowering ratio (%) [3]: 23% | activation at 10 µM [1]: 249% | AUC of the blood glucose level lowered in comparison with AUC of the solvent control group [4]: 39%

CS(=O)(=O)c1ccc([C@@H](CC2CCCC2)C(=O)Nc2nc(C(O)CO)c(Cl)s2)cc1 (stereo partly drawn) [Ex 49]
activation at 10 µM [1]: 273%

O=C(Nc1nc(C(O)CO)cs1)/C(=C/C1CCCC1)c1ccc(S(=O)(=O)C2CCC2)cc1 (stereo not drawn) [Ex 62, (2E)-2-[4-(cyclobutylsulfonyl)phenyl]-3-cyclopentyl-N-[4-(1,2-dihydroxyethyl)-1,3-thiazol-2-yl]acrylamide]
Blood glucose lowering ratio (%) [3]: 19% | activation at 10 µM [1]: 227%

CC(O)(CO)c1csc(NC(=O)/C(=C/C2CCCC2)c2ccc(S(=O)(=O)C3CC3)cc2)n1 (stereo not drawn) [Ex 63, (2E)-3-cyclopentyl-2-[4-(cyclopropylsulfonyl)phenyl]-N-[4-(1,2-dihydroxy-1-methylethyl)-1,3-thiazol-2-yl]acrylamide]
Blood glucose lowering ratio (%) [3]: 35% | activation at 10 µM [1]: 241%

O=C(Nc1nc(C(O)CO)cs1)[C@H](CC1CCCC1)c1ccc(S(=O)(=O)C2CC2)cc1 (stereo partly drawn) [Ex 66]
activation at 10 µM [1]: 267%

O=C(Nc1nc(CC(CO)CO)cs1)/C(=C/C1CCCC1)c1ccc(S(=O)(=O)C2CC2)cc1 [Ex 70, (2E)-3-cyclopentyl-2-[4-(cyclopropylsulfonyl)phenyl]-N-{4-[3-hydroxy-2-(hydroxymethyl)propyl]-1,3-thiazol-2-yl} acrylamide]
activation at 10 µM [1]: 244%

O=C(Nc1nc(C(O)CCO)cs1)/C(=C/C1CCCC1)c1ccc(S(=O)(=O)C2CC2)cc1 (stereo not drawn) [Ex 71]
Blood glucose lowering ratio (%) [3]: 22% | activation at 10 µM [1]: 240%

CC(O)(CO)c1csc(NC(=O)/C(=C/C2CCCC2)c2ccc(S(=O)(=O)C3CCC3)cc2)n1 (stereo not drawn) [Ex 73, (2E)-2-[4-(cyclobutylsulfonyl)phenyl]-3-cyclopentyl-N-[4-(1,2-dihydroxy-1-methylethyl)-1,3-thiazol-2-yl]acrylamide]
Blood glucose lowering ratio (%) [3]: 27% | activation at 10 µM [1]: 235%

CC(O)(CO)c1csc(NC(=O)[C@H](CC2CCCC2)c2ccc(S(=O)(=O)C3CC3)cc2)n1 (stereo partly drawn) [Ex 74, (2R)-3-cyclopentyl-2-[4-(cyclopropylsulfonyl)phenyl]-N-[4-(1,2-dihydroxy-1-methylethyl)-1,3-thiazol-2-yl]propanamide]
Blood glucose lowering ratio (%) [3]: 23% | activation at 10 µM [1]: 260%

O=C(Nc1nc(C(=O)CO)cs1)/C(=C/C1CCCC1)c1ccc(S(=O)(=O)C2CC2)cc1 [Ex 77, (2E)-3-cyclopentyl-2-[4-(cyclopropylsulfonyl)phenyl]-N-(4-glycoloyl-1,3-thiazol-2-yl)acrylamide]
Blood glucose lowering ratio (%) [3]: 18% | activation at 10 µM [1]: 217%
